For this experiment, the target named is T1, Human GPR120 (Homo sapiens, UniProt Q5NUL3).
T1 construct: Ga16 (promiscuous G protein) fusion partner; expressed in transfected cells
T1 sequence (Q5NUL3 with tags, fused parts or gaps): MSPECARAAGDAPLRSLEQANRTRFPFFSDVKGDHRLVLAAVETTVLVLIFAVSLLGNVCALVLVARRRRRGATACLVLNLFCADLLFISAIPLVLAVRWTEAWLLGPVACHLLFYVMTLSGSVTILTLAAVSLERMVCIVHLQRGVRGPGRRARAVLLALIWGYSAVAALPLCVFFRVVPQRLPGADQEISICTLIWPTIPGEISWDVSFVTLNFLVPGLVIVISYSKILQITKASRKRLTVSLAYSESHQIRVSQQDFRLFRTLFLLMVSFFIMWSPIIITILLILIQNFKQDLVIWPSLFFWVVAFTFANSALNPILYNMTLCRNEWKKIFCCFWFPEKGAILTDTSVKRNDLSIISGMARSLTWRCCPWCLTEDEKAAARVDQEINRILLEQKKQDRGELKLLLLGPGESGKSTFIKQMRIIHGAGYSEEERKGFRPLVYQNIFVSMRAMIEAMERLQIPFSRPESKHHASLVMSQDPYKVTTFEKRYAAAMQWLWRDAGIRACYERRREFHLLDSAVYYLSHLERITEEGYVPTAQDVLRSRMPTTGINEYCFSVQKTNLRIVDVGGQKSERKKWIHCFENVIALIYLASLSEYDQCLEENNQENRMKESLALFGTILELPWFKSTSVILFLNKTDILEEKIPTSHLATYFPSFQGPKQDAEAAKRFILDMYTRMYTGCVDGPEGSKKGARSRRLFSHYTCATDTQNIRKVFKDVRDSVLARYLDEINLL
Nature of the experiment: FLIPR assay: agonist-induced calcium mobilization in HEK293-GPR120-Ga16 cells. Format: cell-based. The note with it: for Emax: % enhancement of the test compound relative to a known compound, read-out: % Efficiency; for EC50: GPR120 activation, calcium mobilization, HEK293-GPR120-Ga16 cells. How it is done: Human GPR120 stable cell-line was generated in HEK293 cells. GPR120 (Accession number BC101175) is fused to a promiscuous G protein, Ga16. The expression plasmid is transfected into HEK293 cells using Fugene6 following manufacturer's instruction. Stable cell-lines are generated following drug selection.
FLIPR (Fluorimetric Imaging Plate Reader, Molecular Devices) assays are performed to measure agonist-induced calcium mobilization in the GPR120-expressing cells. One day before the FLIPR assay, HEK293-GPR120-Ga16 cells are seeded into poly-D-lysine coated black-wall-clear bottom 384 well plates (Falcon) at 25,000 cells per well in 40 μl DMEM supplemented with 1% of FBS. The cells are incubated overnight at 37° C. in a humidified incubator. The medium is aspirated on the day of the FLIPR assay. The cells are incubated with 50 μl/well of the assay buffer (HBSS, 20 mM HEPES, 2.5 mM probenecid, pH7.4) containing Fluo-4 NM dye (Invitrogen cat# F36205) at 37° C. for 45 minutes, and then equilibrated at room temperature for 30 minutes. Compounds are dissolved in DMSO and diluted to desired concentrations with assay buffer. Fluorescent output is measured immediately following compound addition (12.5 μl/well) on the FLIPR machine.
An EC50 value was calculated using the change of fluorescent intensity from the reaction initiation. […] In some examples, compounds provided herein have EC50 values from 0.1 μM to 5 μM, while in other examples from 0.5 μM to 5 μM.
The EC50 value in those experiments is given as that concentration of the test compound in question that provoke a response halfway between the baseline and maximum responses. In certain examples compounds of Formula (I) have EC50 values from 0.001 μM to 5 μM. In other examples, compounds of Formula (I) have EC50 values from 0.001 μM to 4 μM. In other examples, compounds of Formula (I) have EC50 values from 0.001 μM to 3 μM. In other examples, compounds of Formula (I) have EC50 values from 0.001 μM to 2 μM. In other examples, compounds of Formula (I) have EC50 values from 0.001 μM to 1 μM. In other examples, compounds of Formula (I) have EC50 values from 0.001 μM to 0.5 μM. […] In other examples, compounds of Formula (I) have EC50 values from 0.001 μM to 0.1 μM.
The % efficiency in those experiments is given as that % enhancement of the test compound in question relative to a known compound. In certain examples compounds of Formula (I) have a % efficiency values from 50% to 150%. In other examples, compounds of Formula (I) have a % efficiency values from 55% to 150%. In other examples, compounds of Formula (I) have a % efficiency values from 60% to 150%. In other examples, compounds of Formula (I) have a % efficiency values from 65% to 150%. In other examples, compounds of Formula (I) have a % efficiency values from 70% to 150%. In other examples, compounds of Formula (I) have a % efficiency values from 75% to 150%. In other examples, compounds of Formula (I) have a % efficiency values from 80% to 150%. In other examples, compounds of Formula (I) have a % efficiency values from 85% to 150%. In other examples, compounds of Formula (I) have a % efficiency values from 90% to 150%. In other examples, compounds of Formula (I) have a % efficiency values from 95% to 150%. In other examples, compounds of Formula (I) have a % efficiency values from 100% to 150%.
In general terms: Calcium assays in cells follow changes in intracellular calcium, usually with a dye or a luminescent sensor.

The values below come from patent US8362050B2, “Compounds and methods for modulating G protein-coupled receptors” (IRM LLC, priority 2008, dated 2013).

Read-outs that look alike come from different tables or passages of the source.

Take `Cc1ccc(-c2cn(-c3cccc(C(=O)O)c3)nn2)cc1` [Compound 57, 3-(4-p-tolyl-1H-1,2,3-triazol-1-yl)benzoic acid]: the Emax came out at 53.7%. Also, the EC50 (as a rule, the concentration that produces a half-maximal response) (read-out: EC50) was 1340 nM. The EC50 (read-out: EC50 Range) is 1000 to 5000 nM.

Regarding `COc1ccc(-c2noc(-c3cccc(C(=O)O)c3)n2)cc1` [Compound 51, 3-[3-(4-Methoxyphenyl)-1,2,4-oxadiazol-5-yl]benzoic acid], the Emax was 55%. In addition, the EC50 (read-out: EC50) was 184 nM. Under “read-out: EC50 Range”, the EC50 was 100 to 250 nM.

Consider `CCn1c(-c2ccccc2OC(F)(F)F)cs/c1=N\c1ccc(S(=O)(=O)O)cc1` [Compound 6, (Z)-4-(3-ethyl-4-(2-(trifluoromethoxy)phenyl)thiazol-2(3H)-ylideneamino)benzenesulfonic acid], for which the Emax came out at 123%. Further, for the setting “read-out: EC50”, the EC50 is 541 nM. Further, the EC50 (read-out: EC50 Range) was 500 to 1000 nM.

With `O=C(O)c1cccc(-n2cc(-c3ccc(F)cc3F)nn2)c1` [Compound 62, 3-(4-(2,4-difluorophenyl)-1H-1,2,3-triazol-1-yl)benzoic acid], the concentration for a half-maximal effect (EC50) (read-out: EC50 Range) lay in the range of 250 to 500 nM.

Consider `CCn1c(-c2ccccc2)cs/c1=N\c1ccc(C(=O)O)c(F)c1F` [Compound 10, (Z)-4-(3-ethyl-4-phenylthiazol-2(3H)-ylideneamino)-2,3-difluorobenzoic acid], for which the Emax was 86.2%. In addition, for the setting “read-out: EC50”, the EC50 was found to be 485 nM. In addition, the EC50 (read-out: EC50 Range) lay within 250 to 500 nM.

Regarding `CCn1c(-c2ccccc2)cs/c1=N\c1ccc(-c2nn[nH]n2)cc1` [Compound 9, (Z)-N-(3-ethyl-4-phenylthiazol-2(3H)-ylidene)-4-(2H-tetrazol-5-yl)aniline], the Emax is 98.4%. The EC50 (read-out: EC50) is 207 nM. The concentration for a half-maximal effect (EC50) (read-out: EC50 Range) lay within 100 to 250 nM.

For the compound `CCc1ccc(-c2cn(-c3cc(F)cc(C(=O)O)c3)nn2)cc1` [Compound 66, 3-(4-(4-ethylphenyl)-1H-1,2,3-triazol-1-yl)-5-fluorobenzoic acid], the EC50 (read-out: EC50 Range) is 500 to 1000 nM.

Consider `CCn1c(-c2ccccc2N(C)C)cs/c1=N\c1ccc(C(=O)O)cc1` [Compound 46, (Z)-4-(4-(2-(dimethylamino)phenyl)-3-ethylthiazol-2(3H)-ylideneamino)benzoic acid], for which the EC50 (read-out: EC50 Range) is 500 to 1000 nM.

Take `CCn1c(-c2ccccc2Oc2ccccc2)cs/c1=N\c1ccc(C(=O)O)cc1` [Compound 8, (Z)-4-(3-ethyl-4-(2-phenoxyphenyl)thiazol-2(3H)-ylideneamino)benzoic acid]: the Emax is 88.1%. Also, the EC50 (read-out: EC50) came to 780 nM. The EC50 (read-out: EC50 Range) lay within 500 to 1000 nM.

Turning to `CCn1c(-c2ccccc2N)cs/c1=N\c1ccc(C(=O)O)cc1` [Compound 43, (Z)-4-(4-(2-aminophenyl)-3-ethylthiazol-2(3H)-ylideneamino)benzoic acid], the EC50 (read-out: EC50 Range) is 1 to 100 nM.

Take `O=C(O)c1cccc(-n2cc(-c3ccc(Cl)cc3)nn2)c1` [Compound 59, 3-(4-(4-chlorophenyl)-1H-1,2,3-triazol-1-yl)benzoic acid]: for the setting “read-out: EC50 Range”, the EC50 lay within 1000 to 5000 nM.

On to `O=C(O)c1cccc(-n2cc(-c3ccc(C(F)(F)F)cc3)nn2)c1` [Compound 58, 3-(4-(4-(trifluoromethyl)phenyl)-1H-1,2,3-triazol-1-yl)benzoic acid], for which, for the setting “read-out: EC50 Range”, the EC50 was 1000 to 5000 nM.

On to `CCn1c(-c2cccc3ccccc23)cs/c1=N\c1ccc(C(=O)O)cc1` [Compound 40, (Z)-4-(3-ethyl-4-(naphthalen-1-yl)thiazol-2(3H)-ylideneamino)benzoic acid], for which the Emax turned out to be 107%. In addition, the EC50 (read-out: EC50) stood at 354 nM. For the same compound, for the setting “read-out: EC50 Range”, the EC50 is 250 to 500 nM.

For `O=C(O)c1ccc(/N=c2\scc(-c3ccccc3)n2CC(F)F)cc1` [Compound 23, (Z)-4-(3-(2,2-difluoroethyl)-4-phenylthiazol-2(3H)-ylideneamino)benzoic acid], for the setting “read-out: EC50 Range”, the EC50 lay in the range of 100 to 250 nM.

On to `CCn1c(-c2ccccc2O)cs/c1=N\c1ccc(C(=O)O)cc1` [Compound 48, (Z)-4-(3-ethyl-4-(2-hydroxyphenyl)thiazol-2(3H)-ylideneamino)benzoic acid], for which the EC50 (read-out: EC50 Range) lay in the range of 100 to 250 nM.

With `CCn1c(-c2cccc(C#N)c2)cs/c1=N\c1ccc(C(=O)O)cc1` [Compound 49, (Z)-4-(4-(3-cyanophenyl)-3-ethylthiazol-2(3H)-ylideneamino)benzoic acid], the 50% effective concentration (EC50) (read-out: EC50 Range) is 250 to 500 nM.

For the compound `CCn1c(-c2cccc(OCc3ccccn3)c2)cs/c1=N\c1ccc(C(=O)O)cc1` [Compound 27, (Z)-4-(3-ethyl-4-(3-(pyridin-2-ylmethoxy)phenyl)thiazol-2(3H)-ylideneamino)benzoic acid], the Emax came out at 65.9%. In addition, the EC50 (read-out: EC50) was 700 nM. Besides, the EC50 (read-out: EC50 Range) lay in the range of 500 to 1000 nM.

For the compound `COc1ccc(-c2cn(-c3cccc(C(=O)O)c3)nn2)cc1` [Compound 55, 3-(4-(4-methoxyphenyl)-1H-1,2,3-triazol-1-yl)benzoic acid], for the setting “read-out: EC50 Range”, the EC50 lay in the range of 1000 to 5000 nM.

For the compound `CCn1c(-c2ccccc2Cl)cs/c1=N\c1ccc(S(=O)(=O)O)cc1` [Compound 30, (Z)-4-(4-(2-chlorophenyl)-3-ethylthiazol-2(3H)-ylideneamino)benzenesulfonic acid], the EC50 (read-out: EC50 Range) is 100 to 250 nM.

For the compound `Cc1ccc(-n2cc(-c3cccc(C(=O)O)c3)nn2)c(F)c1` [Compound 67, 3-(1-(2-fluoro-4-methylphenyl)-1H-1,2,3-triazol-4-yl)benzoic acid], the EC50 (read-out: EC50 Range) was in the range of 100 to 250 nM.

`COc1ccc(-c2nc(-c3cccc(C(=O)O)c3)no2)cc1` [Compound 56, 3-(5-(4-methoxyphenyl)-1,2,4-oxadiazol-3-yl)-benzoic acid]: the Emax stood at 60.4%. The EC50 (read-out: EC50) came to 290 nM. Moreover, the EC50 (read-out: EC50 Range) was 250 to 500 nM.

Turning to `CCn1c(-c2ccccc2Cl)cs/c1=N\c1ccc(C(=O)O)cc1` [Compound 34, (Z)-4-(4-(2-chlorophenyl)-3-ethylthiazol-2(3H)-ylideneamino)benzoic acid], the EC50 (read-out: EC50 Range) lay within 100 to 250 nM.

For the compound `CCn1c(-c2cccc(Cl)c2)cs/c1=N\c1ccc(C(=O)O)cc1` [Compound 35, (Z)-4-(4-(3-chlorophenyl)-3-ethylthiazol-2(3H)-ylideneamino)benzoic acid], for the setting “read-out: EC50 Range”, the EC50 was 100 to 250 nM.

Take `CCn1c(-c2cccc(OCCOC)c2)cs/c1=N\c1ccc(C(=O)O)cc1` [Compound 20, (Z)-4-(3-ethyl-4-(3-(2-methoxyethoxy)phenyl)thiazol-2(3H)-ylideneamino)benzoic acid]: the Emax is 77.1%. Besides, the EC50 (read-out: EC50) came out at 119 nM. The 50% effective concentration (EC50) (read-out: EC50 Range) was in the range of 100 to 250 nM.
